On the set-up of data set [1]: species or system cynomolgus monkeys. The settings on record: cynomolgus monkey, in vivo. How it is done: AR177 plasma HPLC analysis. Blood was taken for plasma analysis of AR177 just prior to, and at 5, 30 and 240 minutes following administration of doses 1 and 12. The plasma fraction was obtained by low speed centrifugation of blood, and stored at −20° C. until analyzed for the AR177 concentration. Plasma AR177 concentrations were assayed using an anion-exchange HPLC method on a Waters HPLC system with a 626 pump, 996 photodiode array detector, 717 autosampler and Millennium system software controlled by an NEC Image 466 computer. Buffer A was 0.1 M Tris base, 20% methanol, pH 12, and Buffer B was 0.1 M Tris base, 1.0 M NaBr, pH12. anion-exchange column tGen-Pak Fax column) was equilibrated at 80% buffer A/20% buffer B for 30 minutes before each HPLC run. Fifty microliters of plasma were analyzed per run. The elusion conditions were: a) five-minute isocratic run at 80% A/20% B, during which the majority of the plasma proteins eluted, b) 30-minute linear gradient to 30% A/70% B during which the AR177 eluted, c) five-minute isocratic run at 30% A/70% B. d) one minute linear gradient to 100% B. e) two- minute run at 100% B for initial column cleanup, and fl two-minute linear gradient to 70% A/30% B for the initial step in the clean-up method for HPLC column clean-up. […]

The target of another data set is T1, HIV-1 protease (Human immunodeficiency virus type 1 group M subtype B, UniProt P04585).
T1 construct: HIV-1 protease enzyme (Bachem) was diluted to 166 ug/mL; purchased Bachem
As to the kind of experiment: HIV-1 protease assay. In kind it is biochemical. The note with it: up to 10 μM. How it is done:
Protease assays. HIV-1 protease enzyme (Bachem) was diluted to 166 ug/mL in 50 mM NaOAc, 5 mM DTT, 2 mM ETDA, and 10% glycerol (pH 5.0) and stored as 10 ul aliquots at −20° C. HIV protease substrate I (Molecular Probes) was diluted to a working concentration of 0.32 nmol/μL. Enzyme (20 μL), substrate (20 μL) and drug (20 μL ) were added to each well of a microtiter plate. Positive and negative controls were evaluated in parallel. Fluorescence was quantitated on a Labsystems Fluoroskan II using 355 nm for excitation and 460 nm emission wavelengths at 37° C. at time zero and at 30 minute intervals for 2 hours.

Data set [2] deals with T2, HIV-1 integrase deletion mutant IN50-288 (Human immunodeficiency virus type 1 group M subtype B, UniProt P12497).
T2 construct: purchased gift of Drs; T. Jenkins and R. Craigie, NIDDK, NIH (not bought)
As to the kind of experiment: Disintegration assay, IN50-288. In kind it is biochemical. The settings on record: IN50-288, 3 μM.

The next data set relates to HIV-2 (ROD, EHO). Briefly: HIV-2 infection assay in MT4 cells. Type of data set: cell-based. The note with it: read-out: IC50 virus production.
For another data set, the system named is HIV-1DV. As to the kind of experiment: Acute infection of primary human macrophages (intracellular p24). Type of data set: cell-based.
The next data set concerns HIV-1RF. As to the kind of experiment: HeLa-CD4-LTR-β-galactosidase cell virus infection assay. Type of data set: cell-based.
In data set [3] the target is HIV-1 integrase (wild-type and deletion mutants) (Human immunodeficiency virus type 1 group M subtype B, UniProt P12497). Briefly: UV crosslinking DNA binding experiments. How it is done:
UV crosslinking experiments. The method used has been described by Engleman et al. Engelman, et al., J. Virol. 68, 5911-5917 (1994). Briefly, integrase (at the indicated concentration) was incubated with substrate in reaction buffer as above for 5 minutes at 30° C. Reactions were then irradiated with a UV transilluminator (254 nm wavelength) from 3 cm above (2.4 mW/cm2) at room temperature for 10 minutes. An equal volume (16 μL) of 2X SDS-PAGE buffer (100 mM Tris, pH 6.8, 4% 2-mercaptoethanol, 4% SDS, 0.2% bromophenol blue, 20% glycerol) was added to each reaction. Twenty μL aliquots were heated at 95° C. for 3 minutes prior to loading on a 12% or 18% SDS-polyacrylamide gel. The gel was run at 120 V for 1.5 hours, dried, and exposed in a Phosphorlmager cassette. […] For the competition experiments (FIG. 29), integrase (200 nM) was preincubated with either the radiolabeled viral DNA substrate (20 nM) or T30177 (20 nM) for 5 minutes at 30° C. prior to the addition of competitor DNA at the indicated concentration.

The test system of a further data set is HIV-1 strain DV. As to the kind of experiment: HIV-1 induced syncytia formation assay in SUP T1 cells. In kind it is cell-based.
The next data set concerns SIVMAC251. In kind it is cell-based, simian immunodeficiency virus. The note with it: SIVMAC251, MT4; read-out: IC50 virus production.
In data set [4] the target is recombinant HIV-1 integrase (wild-type) (Human immunodeficiency virus type 1 group M subtype B, UniProt P12497). The note with it: previously reported by Ojwang et al., cited from earlier work.

“Also recorded” adds a separate entry of the source. Read-outs that look alike come from different tables or passages of the source.

One may read the IC50 as the concentration that gives 50% inhibition. As for “5′-gtggtgggtgggtgggt-3′ (GTGGTGGGTGGGTGGGT; phosphorothioate termini, further chemistry not given here) [T30177, pPT version of parent compound I100-15, 17 mer]”, the “metabolites (n−1, n−2) in plasma” value in data set [1] is reported as “No metabolites”. Besides, the “inhibition of HIV-1 protease” value with HIV-1 protease was “No observable inhibition; also recorded: no effect on the viral enzyme was observed”. In addition, in data set [2], the inhibition of disintegration was no more than 30%. Further, the IC50 in the data set on HIV-2 (ROD, EHO) (HIV-2EHO) is 5980 ± 1050 nM; in the data set with HIV-2 (ROD, EHO) (HIV-2ROD), 27500 ± 11600 nM; with HIV-1RF (HIV-1RF, read-out: IC50 β-galactosidase production, virus infection assay), 9 nM. The “HIV-1 replication in macrophages” value with HIV-1DV is recorded as “significantly inhibited HIV-1 replication in macrophages”. For the same compound, in the data set on HIV-1RF (up to 10 μM, control experiment), the “direct effect on β-galactosidase enzyme activity” value was “no observable direct effect”. Moreover, in the data set with Coxsackie virus (B4) (Coxsackie virus (B4)), the IC50 virus-induced cytopathogenicity is greater than 200 µg/mL. Besides, the “MCC minimum concentration altering normal cell morphology” value in the data set on Coxsackie virus (B4) (Coxsackie virus (B4) assay) was “≧400 μg/mL”. Further, the “competition of integrase complex by competitor DNA” value in data set [3] (competitor in 500-fold excess) is on record as “could not be competed off”. Besides, in data set [3] (enzyme preincubated with oligo), the “inhibition of integrase binding to radiolabeled U5 DNA substrate” value is on record as “inhibited”. Moreover, the “concentration required for DNA-protein complex formation” value in data set [3] (radiolabeled T30177) is listed as roughly 20 nM. Moreover, the “binding of IN1-55 (zinc finger domain)” value in [3] (zinc alone) was “able to bind”.

Consider `Cc1cn([C@H]2C[C@H](N=[N+]=[N-])[C@@H](CO)O2)c(=O)[nH]c1=O` [AZT, 3′-azido-3′-deoxythymidine], for which, in the data set with HIV-1 strain DV (4 μM, removed day 4), the “reappearance of syncytium after removal of drug” value is “two days after removal”. In addition, the IC50 in the data set with HIV-1 strain DV (Human immunodeficiency virus 1, 96 h, SUP T1, HIV-1DV, four days, read-out: IC50 Syn (syncytium inhibition)) came to 40 nM; with HIV-1 strain DV (Human immunodeficiency virus 1, SUP-T1, size variants of I100-15, read-out: IC50 Syn.), 20 nM.

On to “5′-gtggtgggtgggtgggt-3′ [T30177] (GTGGTGGGTGGGTGGGT; phosphorothioate termini, further chemistry not given here)”, for which the IC50 is 1500 ± 1200 nM in the data set with SIVMAC251, 79 nM in data set [4] (read-out: IC50 3′-PROC) and 49 nM in [4] (read-out: IC50 STR · TRA).

(Values after patent US6355785B1, “Guanosine-rich oligonucleotide integrase inhibitors” (Aronex Pharmaceuticals, Inc., priority 1993, dated 2002).)
